Data from US10555532B2, “Plant growth-promoting bacteria and methods of use” (priority 2013, dated 2020).

Legend:
Soybeans = test: Soybean growth, bacteria with plant-growth-promoting chemicals; format: in vivo; settings: 2 weeks
Description: (§1) The selected strains were grown in minimal media (KH2PO4 3 g, Na2HPO4 6 g, NH4Cl 1 g, NaCl 0.50 g, MgSO4 7H2O 0.15 g, CaCl2 2H2O 0.013 g, and glucose 1 g, per L dry weight).

Corn = Corn growth, bacteria with plant-growth-promoting chemicals; format: in vivo; settings: 2 weeks
Description: as §1

Row | Structure (SMILES) | Comparison to Uninoculated (Soybeans; soybean height) [%] | Avg. Height (cm) (Soybeans; soybeans, with or without glycerol, 2,3-butanediol or yeast extract) | Comparison to Uninoculated (Corn; corn height) [%] | Avg. Height (cm) (Corn; corn, with or without 2,3-butanediol or yeast extract)
1 | OCC(O)CO [Uninoculated and Glycerol, glycerol] | 109.8 | 12.34 |  | 
2 | CC(O)C(C)O (stereo not shown) [Uninoculated and 2,3-butanediol, 2,3-butanediol] |  |  | 105.8 | 16.03
